# Experimental data: patent US20230382904A1, “SUBSTITUTED 4-([1,2,4]TRIAZOLO[1,5-a]PYRIDIN-6-YL)THIOPHENE-2-CARBOXAMIDE DERIVATIVES AND USE THEREOF” (The Johns Hopkins University, priority 2020, published 2023)
# Tests used:
# DLK = DLK (Homo sapiens (Human), UniProt Q12852); assay: DLK biochemical assay (TR-FRET, MKK7 phosphorylation)
# Method in brief: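 TR-FRET ratio (665/Eu) reports MKK7 T275/S277 phosphorylation, lowered by DLK inhibition. Reaction: 60 μM ATP, 15 nM MKK7, 10 nM DLK catalytic domain, 90 min room temperature; detection incubation 16 h, 37° C. (1536-well) or 4° C. (384-well). Final concentrations.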
# LZK = LZK (Homo sapiens (Human), UniProt O43283); assay: LZK biochemical assay (TR-FRET, MKK7 phosphorylation)
# Chain of LZK (O43283 168-409): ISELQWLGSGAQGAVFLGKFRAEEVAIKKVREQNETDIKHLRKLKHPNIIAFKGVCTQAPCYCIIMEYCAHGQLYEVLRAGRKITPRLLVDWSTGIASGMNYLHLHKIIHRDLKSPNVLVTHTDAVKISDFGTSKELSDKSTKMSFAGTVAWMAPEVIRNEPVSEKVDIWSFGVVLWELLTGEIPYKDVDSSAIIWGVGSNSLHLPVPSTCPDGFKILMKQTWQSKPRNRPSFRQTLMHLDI
# Method in brief: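 Readout is the HTRF ratio (XL665/Eu) from an EDTA-containing detection mix of 0.4 nM Eu-anti-phospho-MKK7 (T275/S277) and 20 nM XL665-anti-His, incubated 16 h at 32° C. This followed a 90 min RT reaction of 10 nM LZK catalytic domain, 15 nM MKK7 and 15 μM ATP at pH 7.5.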
# Chain of DLK (Q12852 1-520): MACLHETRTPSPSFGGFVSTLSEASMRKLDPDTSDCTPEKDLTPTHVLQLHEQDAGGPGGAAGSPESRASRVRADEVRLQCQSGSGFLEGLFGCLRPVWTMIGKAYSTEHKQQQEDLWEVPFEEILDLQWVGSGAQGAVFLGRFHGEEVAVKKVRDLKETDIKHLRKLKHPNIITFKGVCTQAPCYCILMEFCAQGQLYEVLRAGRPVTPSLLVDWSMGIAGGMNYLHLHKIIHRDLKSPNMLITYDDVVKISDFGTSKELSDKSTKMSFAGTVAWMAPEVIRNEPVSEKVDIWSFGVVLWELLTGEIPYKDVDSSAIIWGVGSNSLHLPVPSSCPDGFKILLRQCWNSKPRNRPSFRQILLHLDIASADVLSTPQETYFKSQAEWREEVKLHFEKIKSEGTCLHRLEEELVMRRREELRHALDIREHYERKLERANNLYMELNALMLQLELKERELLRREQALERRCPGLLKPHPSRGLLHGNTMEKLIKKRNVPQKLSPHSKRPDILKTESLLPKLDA
IC50 (DLK) [nM],IC50 (LZK) [nM],SMILES
94,1100,"C[C@H](NC(=O)c1cc(-c2cc(C(=O)NC3CCNC3)c3nc(N)nn3c2)cs1)c1ccc(F)cc1 (single isomer, unassigned) [Compound 49]"
130,1700,Nc1nc2ccc(-c3csc(C(=O)NC4CCCc5cc(F)ccc54)c3)cn2n1 (centres unmarked) [Compound 318]
180,870,CCNC(=O)c1cc(-c2csc(C(=O)NCc3ccc(F)cc3)c2)cc2nc(N)nn12 [Compound 157]
3.4,110,C[C@H](NC(=O)c1cc(-c2cc(C(=O)NC3CNC(=O)C3)c3nc(N)nn3c2)cs1)c1ccc(F)cc1 (mixture of isomers) [Compound 28]
260,> 30000,CC(C)c1ccccc1NC(=O)c1cc(-c2ccc3nc(N)nn3c2)cs1 [Compound 293]
67,3700,CCC[C@H](NC(=O)c1cc(-c2ccc3nc(N)nn3c2)cs1)c1ccccc1 [Compound 321]
42,730,"C[C@H](NC(=O)c1cc(-c2cc(C(=O)NC3CCNC3)c3nc(N)nn3c2)cs1)c1ccccc1 (single isomer, unassigned) [Compound 50]"
190,> 30000,CCC(NC(=O)c1cc(-c2ccc3nc(N)nn3c2)cs1)c1ccc(F)cc1 (centres unmarked) [Compound 338]
4.85,55,"CC(NC(=O)c1cc(-c2csc(C(=O)N[C@@H](C)c3ccccc3)c2)cn2nc(N)nc12)C(F)(F)F (single isomer, unassigned) [Compound 71]"
133,25000,COc1cccc(CNC(=O)c2cc(-c3ccc4nc(N)nn4c3)cs2)c1 [Compound 182]
1.8,36,CC[C@H](NC(=O)c1cc(-c2cc(C(=O)N[C@@H](C)CO)c3nc(N)nn3c2)cs1)c1ccccc1 [Compound 77]
31,150,C[C@H](NC(=O)c1cc(-c2cc(C(=O)NC(C)(C)C)c3nc(N)nn3c2)cs1)c1ccc(F)cc1 [Compound 17]
16,45,C[C@@H](CO)NC(=O)c1cc(-c2csc(C(=O)NCc3ccc(F)cc3)c2)cn2nc(N)nc12 [Compound 30]
230,5100,Nc1nc2ccc(-c3csc(C(=O)N[C@@H](CCO)c4ccc(F)cc4)c3)cn2n1 [Compound 341]
13,170,COc1cccc(CNC(=O)c2cc(-c3cc(C(=O)N[C@@H](C)CO)c4nc(N)nn4c3)cs2)c1 [Compound 31]
160,1200,CCNC(=O)c1cc(-c2csc(C(=O)NCc3ccccc3)c2)cn2nc(N)nc12 [Compound 5]
640,23000,Cc1cccc(CNC(=O)c2cc(-c3ccc4nc(N)nn4c3)cs2)c1C [Compound 223]
1.3,41,CC[C@H](NC(=O)c1cc(-c2cc(C(=O)N[C@H]3CCOC3)c3nc(N)nn3c2)cs1)c1ccc(F)cc1 [Compound 115]

# Continued, molecule first:
SMILES,IC50 (DLK) [nM],IC50 (LZK) [nM]
Nc1nc2ccc(-c3csc(C(=O)NCc4cccc(OC(F)F)c4)c3)cn2n1 [Compound 195],480,8800
CC[C@H](NC(=O)c1cc(-c2cc(C(=O)NC(C)CF)c3nc(N)nn3c2)cs1)c1ccc(F)cc1 (some centres unmarked) [Compound 141],10,63
CCc1nnc(-c2cc(-c3csc(C(=O)N[C@@H](C)c4ccc(F)cc4)c3)cn3nc(N)nc23)o1 [Compound 396],310,980
Cc1ccccc1NC(=O)c1cc(-c2ccc3nc(N)nn3c2)cs1 [Compound 227],835,> 30000
COc1cccc(CNC(=O)c2cc(-c3ccn4nc(N)nc4c3)cs2)c1 [Compound 364],400,19000
"CC[C@H](NC(=O)c1cc(-c2cc(C(=O)NC(C)CF)c3nc(N)nn3c2)cs1)c1ccc(F)cc1 (single isomer, unassigned) [Compound 144-2]",23,200
CN1CCCCC1CNC(=O)c1cc(-c2ccc3nc(N)nn3c2)cs1 (centres unmarked) [Compound 230],2500,28000
Nc1nc2ccc(-c3csc(C(=O)NC(c4ccccc4)C4CC4)c3)cn2n1 (centres unmarked) [Compound 346],79,29000
CCC(C)c1nnc(-c2cc(-c3csc(C(=O)N[C@@H](CC)c4ccc(F)cc4)c3)cn3nc(N)nc23)s1 (some centres unmarked) [Compound 398],880,3900
"C[C@H](NC(=O)c1cc(-c2cc(C(=O)N[C@@H](C)CO)c3nc(N)nn3c2)cs1)c1ccc(F)cc1 [Compound 26, 2-Amino-6-(5-{[(1S)-1-(4-fluorophenyl)ethyl]carbamoyl}thiophen-3-yl)-N-[(2S)-1-hydroxypropan-2-yl][1,2,4]triazolo[1,5-a]pyridine-8-carboxamide]",6.4,68
Nc1nc2c(C(=O)NC3COC3)cc(-c3csc(C(=O)NCc4ccccc4)c3)cn2n1 [Compound 64],200,7000
C[C@H](NC(=O)c1cc(-c2ccc3nc(N)nn3c2)cs1)c1ccc(Cl)cc1 [Compound 355],210,> 30000
C[C@H](NC(=O)c1cc(-c2cc(C(=O)N[C@H]3CCOC3)c3nc(N)nn3c2)cs1)c1ccccc1 [Compound 102],4.3,71
Nc1nc2ccc(-c3csc(C(=O)NCc4cccc(F)c4)c3)cn2n1 [Compound 216],1140,5900
CC[C@H](NC(=O)c1cc(-c2cc(C(=O)NC(C)(C)C)c3nc(N)nn3c2)cs1)c1ccc(F)cc1 [Compound 142],120,400
C[C@@H](NC(=O)c1cc(-c2ccc3nc(N)nn3c2)cs1)c1ccccc1 [Compound 325],280,> 30000
CC(C)NS(=O)(=O)c1cc(-c2csc(C(=O)N[C@@H](C)c3ccc(F)cc3)c2)cn2nc(N)nc12 [Compound 384],> 30000,> 30000
Nc1nc2ccc(-c3csc(C(=O)NCc4cnc5ccccn45)c3)cn2n1 [Compound 261],510,14000
CC(C)NC(=O)c1cc(-c2csc(C(=O)NCc3ccccc3)c2)cn2nc(N)nc12 [Compound 11],17,90
Nc1nc2ccc(-c3csc(C(=O)NC4(c5ccc(F)cc5)CC4)c3)cn2n1 [Compound 299],120,2500

SMILES,IC50 (DLK) [nM],IC50 (LZK) [nM]
C[C@H](NC(=O)c1cc(-c2cc(C(=O)NC(C)(C)C)c3nc(N)nn3c2)cs1)c1ccccc1 [Compound 18],12,110
Nc1nc2c(F)cc(-c3csc(C(=O)NCc4ccc(F)cc4)c3)cn2n1 [Compound 382],310,> 30000
Nc1nc2c(C(=O)NC3CCNC3)cc(-c3csc(C(=O)NCc4ccccc4)c3)cn2n1 (centres unmarked) [Compound 36],230,840
Nc1nc2ccc(-c3csc(C(=O)NC4CCC4)c3)cn2n1 [Compound 171],970,> 30000
CC[C@H](NC(=O)c1cc(-c2cc(C(=O)NC(C)C)n3nc(N)nc3c2)cs1)c1ccc(F)cc1 [Compound 154],4.9,89
C[C@H](NC(=O)c1cc(-c2cc(C(=O)NCC(F)(F)F)c3nc(N)nn3c2)cs1)c1ccccc1 [Compound 62],120,10000
"C[C@H](NC(=O)c1cc(-c2cc(C(=O)NC3CNC(=O)C3)c3nc(N)nn3c2)cs1)c1ccccc1 (single isomer, unassigned) [Compound 54]",2.3,30
Cc1ccc([C@H](C)NC(=O)c2cc(-c3cc(C(=O)N[C@H]4CCOC4)c4nc(N)nn4c3)cs2)cc1 [Compound 106],11,160
C[C@H](NC(=O)c1cc(-c2cc(C(=O)NC3CCNC3)c3nc(N)nn3c2)cs1)c1ccc(F)cc1 (mixture of isomers) [Compound 33],12,360
Nc1nc2ccc(-c3csc(C(=O)NC4COC4)c3)cn2n1 [Compound 340],4300,> 30000
Nc1nc2ccc(-c3csc(C(=O)NCc4c(F)cccc4F)c3)cn2n1 [Compound 221],1240,9200
CN1CCO[C@H](CNC(=O)c2cc(-c3ccc4nc(N)nn4c3)cs2)C1 [Compound 214],1750,25000
CC1(C)CC(NC(=O)c2cc(-c3ccc4nc(N)nn4c3)cs2)c2ccccc2O1 (centres unmarked) [Compound 316],180,4700
CC(C)NC(=O)c1cc(-c2csc(C(=O)N[C@@H](C)c3nc4ccccc4o3)c2)cn2nc(N)nc12 [Compound 95],14,130
COc1ccc([C@H](C)NC(=O)c2cc(-c3ccc4nc(N)nn4c3)cs2)cc1 [Compound 354],110,> 30000
Nc1nc2c(C(=O)NC3CCNC3)cc(-c3csc(C(=O)NCc4ccc(F)cc4)c3)cn2n1 (centres unmarked) [Compound 22],185,650
Cc1cccc(CNC(=O)c2cc(-c3ccc4nc(N)nn4c3)cs2)c1 [Compound 194],670,> 30000
CC(C)Oc1cccc(CNC(=O)c2cc(-c3ccc4nc(N)nn4c3)cs2)c1 [Compound 196],350,9490
C[C@H](NC(=O)c1cc(-c2ccc3nc(N)nn3c2)cs1)c1ccc(OC(F)(F)F)cc1 [Compound 356],310,> 30000
CCO[C@H]1CC[C@H](NC(=O)c2cc(-c3ccc4nc(N)nn4c3)cs2)CC1 [Compound 177],1600,> 30000
